We go through 5 compounds from patent US20070066672A1, “Benzimidazole derivatives and use thereof as peptide deformylase inhibitors” (Arpida A/S, priority 2003, published 2007).

Assay [1] deals with T1, Peptide Deformylase (PDF) (Escherichia coli, UniProt P0A6K3).
T1 construct: made in house
Description: Bacterial peptide deformylase (PDF) assay, colorimetric cell free, enzyme from E. coli. The assay is classed as biochemical. The source says: (§1) To find inhibitors of Peptide Deformylase (PDF), a colorimetric cell free assay for measuring the enzymatic activity of PDF has been adapted to the microtiter plate format (96 wells). The assay comprises three components, purified PDF, f-Met-Ala as substrate and TNBS as the detecting agent of primary amino groups. The resulting TNP_NH-Met-Ala sulfite complex can be detected at 420 nm. PDF enzymes, containing Fe^2+ as the native metal, are purified and are stabilized by the addition of tris(2-carboxyethyl)phosphine (TCEP).
(§2) The IC50 value of a compound of the invention as a bacterial PDF inhibitor was determined using the following assay.
(§3) Assay buffer 0.1 M MOPS pH was adjusted to 7.2 with NaOH, containing 0.25 M NaCl, 100 μg/mL catalase and 1 mg/mL BSA.
(§4) E. coli enzyme (2.5 mg/ml) 10 μl+290 μl Assay buffer, 1 μl per ml enzyme mix. S. aureus (15 mg/ml) 10 μl+990 μl Assay buffer, 0.3 μl per ml enzyme mix.
(§5) Substrate mix: 10 mM f-Met-Ala was made up from 200 mM f-Met-Ala in methanol with assay buffer.
(§6) TNBS solution: Freshly dilute 1 M TNBS stock solution diluted 1:10 with water.
(§7) Buffer C: 0.5 M borate buffer adjusted to pH 9.5 with NaOH.
(§8) Buffer D: 0.2 ml of freshly prepared 0.5 M Na2SO3 was mixed with 9.8 mL of 0.5M NaH2PO4.
(§9) Inhibitor solution: 2 mM Sodium 4-(hydroxymercurio)benzoate in assay buffer.
(§10) Compound mix: Compound of formula I dissolved in DMSO in a 10 mg/mL stock solution. Further dilutions were made in DMSO in the concentration range between 0.05 to 100 mM.
(§11) The assay was performed in a 96 Microtiter plate containing test compound. To each well containing test compound mix was added 75 microliter of enzyme mix from E. coli followed by the addition of 25 microliter of substrate mix. The resulting mix was incubated for 30 minutes at room temperature with shaking. TNBS solution (50 microliter/well) was added and the resulting mixture was incubated for 15 minutes under shaking. Buffer C was then added (20 microliter/well). After incubating at room temperature for 15 minutes under shaking, buffer D was added (50 microliter/well). The optical […] was then measured at 420 nm, thereby determining the IC50 value.

In assay [2] the target is T2, Peptide Deformylase (PDF) (Staphylococcus aureus, UniProt P68826).
T2 construct: made in house
T2 sequence (P68826 1-183): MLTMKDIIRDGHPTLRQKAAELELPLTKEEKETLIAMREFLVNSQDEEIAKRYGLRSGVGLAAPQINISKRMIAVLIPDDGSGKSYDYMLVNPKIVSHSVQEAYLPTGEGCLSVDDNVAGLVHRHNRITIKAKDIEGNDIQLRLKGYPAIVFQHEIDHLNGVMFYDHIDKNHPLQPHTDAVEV
Nature of the assay: Bacterial peptide deformylase (PDF) assay, colorimetric cell free, enzyme from S. aureus. To be noted: f-Met-Ala substrate, TNBS detection at 420 nm. The assay is classed as biochemical.
Excerpt: as §1, §2, §3, §4, §5, §6, §7, §8, §9, §10, §11
The assay was repeated using enzyme mix from S. aureus.

T1 sequence (P0A6K3 whole entry): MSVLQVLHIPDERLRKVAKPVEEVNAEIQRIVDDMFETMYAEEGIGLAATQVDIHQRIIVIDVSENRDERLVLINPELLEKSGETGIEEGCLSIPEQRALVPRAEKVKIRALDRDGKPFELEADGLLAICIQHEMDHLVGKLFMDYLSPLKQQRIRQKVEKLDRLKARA

Usually IC50 stands for the concentration at which inhibition is half-maximal. The low end stands for greater potency in that assay, the high end for weaker potency in that assay. As to `CCC(NC(=O)CCC(=O)O)c1nc2cc(C(=O)NCC(=O)OC)ccc2n1Cc1ccccc1` (stereo not shown) [Example 12, N-{1-[1-Benzyl-5-(methoxycarbonylmethyl-carbamoyl)-1H-benzoimidazol-2-yl]-propyl}-succinamic acid], the IC50 amounted to 4800 nM in assay [1] and 68 nM in assay [2].

Regarding `CCC(NC(=O)CCC(=O)NO)c1nc2cc(C(=O)NCC(=O)OC)ccc2n1C1CC1` (stereo not shown) [Example 29, ({1-Cyclopropyl-2-[1-(3-hydroxycarbamoyl-propionylamino)-propyl]-1H-benzoimidazole-5-carbonyl}-amino)-acetic acid methyl ester], the IC50 was determined as 79 nM in assay [1] and 105 nM in assay [2].

Regarding `COC(=O)CNC(=O)c1ccc2c(c1)nc(C(Cc1ccccc1)NC(=O)CCC(=O)O)n2Cc1ccc(Cl)cc1` (stereo not shown) [Example 6, N-{1-[1-(4-Chloro-benzyl)-5-(methoxycarbonylmethyl-carbamoyl)-1H-benzoimidazol-2-yl]-2-phenyl-ethyl}-succinamic acid], the results for the concentration for half-maximal inhibition (IC50) in assay [1] and in assay [2] were 1300 nM and 93 nM, respectively.

With `COC(=O)CNC(=O)c1ccc2c(c1)nc(C(CC(C)C)NC(=O)CCC(=O)O)n2C1CC1` (stereo not shown) [Example 13, N-{1-[1-Cyclopropyl-5-(methoxycarbonylmethyl-carbamoyl)-1H-benzoimidazol-2-yl]-3-methyl-butyl}-succinamic acid], the IC50 in assay [1] was 4000 nM; in assay [2] it was 119 nM.

As to `CCC(NC(=O)CCC(=O)O)c1nc2cc(C(=O)NCC(=O)OC)ccc2n1Cc1ccco1` (stereo not shown) [Example 11, N-{1-[1-Furan-2-ylmethyl-5-(methoxycarbonylmethyl-carbamoyl)-1H-benzoimidazol-2-yl]-propyl}-succinamic acid], the IC50 in assay [1] worked out at 2800 nM; in assay [2], 1400 nM.
